Data taken from PubChem BioAssay (NCI).
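Dose response: 5 concentrations. Exposure: 48 h. Format: 96-well plates. Endpoint: linear interpolation; highest concentration if not reached. Abbreviation: GI50, concentration required for 50% inhibition of growth. TGI: concentration producing complete growth inhibition.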

Legend:
Assay in all cases: NCI anticancer screen, dose series, 48 h
[1] = tested on: MDA-MB-231 breast
[2] = tested on: NCI-H522 lung
[3] = tested on: SF-268 CNS
[4] = tested on: A498 renal
[5] = tested on: OVCAR-4 ovarian
[6] = tested on: OVCAR-8 ovarian
[7] = tested on: EKVX NSCLC
[8] = tested on: LOX IMVI melanoma
[9] = tested on: COLO 205 colon
[10] = tested on: T-47D breast

Row | SMILES | TGI [1] | TGI [2] [µM] | TGI [3] | TGI [4] [µM] | TGI [5] | TGI [6] | TGI [7] | TGI [8] [µM] | TGI [9] [µM] | TGI [10] | GI50 [1] | GI50 [10] | GI50 [9] [µM] | GI50 [3] | GI50 [4] [µM] | GI50 [5] | GI50 [6] | GI50 [7] | GI50 [8] [µM] | GI50 [2] [µM]
1 | CC1(C)CCSC(/C=C/c2ccccc2)=N1 | 30.6 µM | 39.8 | 80.3 µM | 36.4 | 32.5 µM | 29.8 µM | 63.7 µM | 27.8 | – | – | – | – | – | – | – | – | – | – | – | –
2 | O=C(CC(=O)Nc1ccc(Cl)cc1)NNCC(=O)Nc1nc(-c2ccccc2)cs1 | – | > 100 | > 100 µM | – | > 100 µM | > 100 µM | > 100 µM | > 100 | > 100 | – | – | – | – | – | – | – | – | – | – | –
3 | COc1ccc(C2(CN(C)C)COc3cc(OC)c(OC)cc3C2=O)cc1OC (stereo not given) | – | > 100 | > 100 µM | > 100 | > 100 µM | > 100 µM | > 100 µM | 31.1 | 76.2 | – | – | – | – | – | – | – | – | – | – | –
4 | Cc1cccc(C(C)O)n1 (stereo not given) | > 100 µM | > 100 | > 100 µM | > 100 | > 100 µM | > 100 µM | > 100 µM | – | > 100 | > 100 µM | – | – | – | – | – | – | – | – | – | –
5 | O=c1c2cc(Br)ccc2oc2ccc(Br)cc12 | > 100 µM | > 100 | > 100 µM | > 100 | > 100 µM | > 100 µM | – | – | > 100 | > 100 µM | – | – | – | – | – | – | – | – | – | –
6 | C/C(=N\NC(N)=S)c1ccc2c(c1)OCO2 | – | > 100 | > 100 µM | > 100 | – | > 100 µM | > 100 µM | > 100 | > 100 | – | – | – | – | – | – | – | – | – | – | –
7 | Clc1ccc(C2=Nc3ccccc3SC(c3ccc(Cl)c(Cl)c3)C2)c(Cl)c1 (stereo not given) | – | 28 | 19.9 µM | 37.4 | 36.6 µM | 31.1 µM | 33.6 µM | 21.6 | 35 | – | – | – | – | – | – | – | – | – | – | –
8 | O=c1cc/c(=N\Nc2ccccc2)c(=O)/c1=N/Nc1ccccc1 | > 50 µM | – | > 50 µM | > 50 | > 50 µM | > 50 µM | > 50 µM | > 50 | > 50 | > 50 µM | > 50 µM | > 50 µM | > 50 | > 50 µM | > 50 | > 50 µM | > 50 µM | > 50 µM | > 50 | –
9 | Cc1ccccc1C(C#N)/C(=N/NC(=O)c1cc2ccccc2cc1O)C(=O)Nc1cccc(Cl)c1 (stereo not given) | – | 78.3 | 90.3 µM | > 100 | 87.7 µM | > 100 µM | > 100 µM | – | 72.5 | – | – | – | – | – | – | – | – | – | – | –
10 | CCOC(=O)/C(C#N)=C(O)/C(=C/c1ccccc1Cl)NC(=O)c1ccccc1 | – | > 100 | > 100 µM | > 100 | > 100 µM | > 100 µM | > 100 µM | – | > 100 | – | – | – | – | – | – | – | – | – | – | –
11 | O=C1CCC(c2nc3ccccc3o2)C(=O)N1 (stereo not given) | – | > 100 | > 100 µM | > 100 | > 100 µM | > 100 µM | > 100 µM | > 100 | > 100 | – | – | – | – | – | – | – | – | – | – | –
12 | CN1C(c2ccccc2)CC(=Nc2ccccc2)CC1c1ccccc1 (stereo not given) | – | 17.4 | 28.7 µM | – | 31 µM | 20.6 µM | 56.5 µM | 16.8 | 22.8 | – | – | – | – | – | – | – | – | – | – | –
13 | COc1cc2c(cc1OC)-c1c(cnn1C1OC(COC(C)=O)C(OC(C)=O)C(OC(C)=O)C1OC(C)=O)CC2 (stereo not given) | – | 37.3 | > 100 µM | > 100 | > 100 µM | > 100 µM | > 100 µM | > 100 | > 100 | – | – | – | – | – | – | – | – | – | – | –
14 | O=C(Nc1ccc(C(F)(F)F)cc1[N+](=O)[O-])C(=O)C(C(=O)c1ccc2ccccc2c1)C1OC(=O)c2ccccc21 (stereo not given) | – | 16.4 | 52 µM | 19.7 | > 50.4 µM | 19.8 µM | 21.2 µM | 24.1 | 32.7 | – | – | – | – | – | – | – | – | – | – | –
15 | N=C(c1ccccc1)N1CCCCC1 | – | > 100 | > 100 µM | – | > 100 µM | > 100 µM | > 100 µM | > 100 | > 100 | – | – | – | – | – | – | – | – | – | – | –
16 | CCCCCCN1C(=O)/C(=c2\sc3n(c2=O)C2C(NN=3)N(CC)C(=O)N2CC)c2ccccc21 (stereo not given) | 10.4 µM | > 50 | – | 2.37 | – | > 50 µM | > 50 µM | > 50 | 38.3 | > 50 µM | 1.77 µM | 1.66 µM | 2.21 | – | 0.706 | – | 1.47 µM | 2.84 µM | 1.53 | 1.45
17 | OCCN(CO)CN(CN(CO)CCO)c1nc(N(CN(CO)CCO)CN(CO)CCO)nc(N(CN(CO)CCO)CN(CO)CCO)n1 | 3.23 ng/mL | – | 2.93 ng/mL | – | 4.8 ng/mL | 5500 ng/mL | 5.03 ng/mL | – | – | 3.21 ng/mL | 1.01 ng/mL | 1.09 ng/mL | – | 1.35 ng/mL | – | 1.7 ng/mL | 1.54 ng/mL | 1.42 ng/mL | – | –
18 | COC(=O)c1nc(-c2ccc(Cl)c(Cl)c2)nc2ccccc12 | – | > 100 | > 100 µM | > 73.7 | – | > 100 µM | > 100 µM | > 100 | – | – | – | – | – | – | – | – | – | – | – | –
19 | CC1(C)OC2C(CO)OC(n3ccc(=O)[nH]c3=O)C2O1 (stereo not given) | > 100 µM | > 100 | > 100 µM | > 100 | – | > 100 µM | > 100 µM | > 100 | > 100 | > 100 µM | – | – | – | – | – | – | – | – | – | –
20 | Cc1ccc2sc3cc(=O)cc(C)c-3nc2c1 | – | > 100 | > 100 µM | – | 52.4 µM | > 100 µM | > 100 µM | – | > 100 | – | – | – | – | – | – | – | – | – | – | –
21 | COc1cc2c(/C=C3/C(=O)Nc4ccccc43)c(Cl)n(Cc3ccccc3)c2cc1C | > 100 µM | > 100 | > 100 µM | > 100 | – | > 100 µM | > 100 µM | > 100 | > 100 | > 100 µM | > 100 µM | 41.9 µM | 31.8 | > 100 µM | > 100 | – | > 100 µM | > 100 µM | > 100 | > 100
22 | Cc1cc2c(C(C)C)c(O)c(O)c3coc(/c1=c1/c(C)cc4c(C(C)C)c(=O)c(=O)c5coc1c45)c32 | – | 19 | 24.1 µM | 24.8 | 22.8 µM | 17.1 µM | 16.4 µM | 18 | 5.34 | – | – | – | – | – | – | – | – | – | – | –
23 | CC(=O)/C=C1/c2ccccc2N(C(C)=O)C1O (stereo not given) | – | – | – | > 100 | > 100 µM | > 100 µM | > 100 µM | – | > 100 | – | – | – | – | – | – | – | – | – | – | –
